Read-outs that look alike come from different tables or passages of the source.
How the values were obtained:
membrane VEGFR-2 = assay: Membrane VEGFR-2 relative quantification by flow cytometry in cancer cells co-cultured with Jurkat T cells; assay type: cell-based, human; conditions: 100 μM, 24 h, relative to non-treated co-cultures
Method: (§1) We determined by flow cytometry the effect of these compounds on the expression of membrane PD-L1 in cancer cells when they were co-cultured with immune cells. Thus, interferon γ-stimulated cancer cells were treated for 24 h with the compounds at 100 μM in presence of Jurkat T cells. Then, cells were fixed and treated with anti-PD-L1 conjugated to AlexaFluor®647. We took advantage of the versatility of flow cytometry to simultaneously measure the expression of membrane VEGFR-2 by using anti-VEGFR-2 conjugated to fluorescein.
(§2) To study the effect of the compounds on every biological target in co-cultured cancer cell lines, the compounds were incubated for 24h as described before.
(§3) To detect membrane PD-L1 and VEGFR-2, after the cell treatments, they were collected, fixed with 4% in PBS paraformaldehyde, and stained with FITC Mouse monoclonal Anti-Human VEGFR-2 (ab184903) and Alexa Fluor® 647 Rabbit monoclonal Anti-PD-L1 (ab215251).

Jurkat T cells = assay: Jurkat T cell viability in co-culture with cancer cells (flow cytometry count); assay type: cell-based; conditions: Homo sapiens, 24 h, read-out: percentage of living Jurkat cells relative to non-treated co-cultures
Method: (§4) The effect of the synthesized compounds on tumor cell proliferation in the presence of PD-1-expressing Jurkat T cells was also studied. This assay was carried out, as in the previous experiments, in the HT29, MCF7, and A549 cell lines (see Table 4). Interferon γ-stimulated cancer cells were treated for 24 h with the compounds at 100 μM in presence of Jurkat T cells. Then, cells were counted using flow cytometry. The percentage of living cells relative to non-treated co-cultures (control) was established for both cancer and immune cells in every co-culture.
(§5) To study the effect of the compounds on the cell viability in co-culture with Jurkat T cells or THP-1 cells, 10^5 or 2 × 10^5 of the corresponding cancer cells line per well were seeded and incubated for 24 h, then the medium was changed by one cell culture medium supplemented with IFN-γ (10 ng/mL; human, Invitrogen®) and containing 5 × 10^5 or 10^5 Jurkat T cells or THP-1, respectively, per well and 100 µM of the corresponding compound or DMSO for the […] control. After 24 h/48 h of incubation, supernatants were collected to determine Jurkat T or THP-1 living cells, and on the other hand, corresponding cancer cells were collected with trypsin. Both types of suspension cells were fixed with 4% in PBS paraformaldehyde and counted by flow cytometry.

A-549 = A-549 cell viability in co-culture with Jurkat T cells (flow cytometry count); assay type: cell-based, human; conditions: 24 h; for viability at 100 µM: Homo sapiens, A549, A-549/Jurkat T co-culture, IFN-γ stimulated, read-out: percentage of living A-549 cells relative to non-treated co-cultures; for inhibition rate of A-549 cell viability: co-cultured with Jurkat T cells, 100 μM
Method: as §4, §5

membrane PD-L1 = biological target: T1, membrane PD-L1 (Homo sapiens, UniProt Q9NZQ7); assay: Membrane PD-L1 relative quantification by flow cytometry in cancer cells co-cultured with Jurkat T cells; assay type: cell-based; conditions: Jurkat, 24 h; for remaining activity at 100 µM: relative to non-treated co-cultures, read-out: % PDL1 (membrane); for inhibition at 100 µM: HT-29 co-cultured with Jurkat T cells, read-out: membrane PD-L1 inhibition rate
T1 construct: Alexa Fluor® 647 Rabbit monoclonal Anti-PD-L1 (ab215251); endogenous in cells; host or cells: HT-29, MCF-7, A-549 (A17: MCF-7 only; A14: IFN-gamma-stimulated cancer cells co-cultured with Jurkat T cells)
Method: as §1, §2, §3

HT-29 = HT-29 cell viability in co-culture with Jurkat T cells (flow cytometry count); assay type: cell-based, human; conditions: 24 h; for viability at 100 µM: Homo sapiens, HT-29/Jurkat T co-culture, IFN-γ stimulated, read-out: percentage of living HT-29 cells relative to non-treated co-cultures
Method: as §4, §5

c-Myc = assay: Total c-Myc relative quantification by flow cytometry in cancer cell lines; assay type: cell-based, human; conditions: 24 h
Method: (§6) The effect of these triazole derivates on c-Myc and PD-L1 was measured in three different cancer cell lines (HT-29, MCF-7, A-549) by flow cytometry. Thus, cells were incubated for 24 h with the corresponding compound at a concentration of 100 μM. Dimethyl sulfoxide (DMSO)-treated cells were used as the negative control, and a PD-L1 inhibitor, BMS-8 [29, 31], was used as a reference control. After permeabilization and fixation, cells were treated with anti-PD-L1 conjugated to AlexaFluor®647 and anti-c-Myc conjugated to fluorescein to determine the amount of both targets related to the negative control. Table 1 show the results in terms of the percentage of the detected target in relation to the negative control. This assay was carried out on cancer cell lines HT-29, MCF-7, and A-549.
(§7) To study the effect of the compounds on every biological target in cancer cell lines, the compounds were used at a 100 µM dose.
(§8) For the assay, 10^5 cells per well were incubated for 24 h with the corresponding dose of the tested compound in a total volume of 500 μL of their growth media.
(§9) To detect total PD-L1 and c-Myc, after the cell treatments, they were collected and fixed with 4% in PBS paraformaldehyde. After fixation, a treatment with 0,5% in PBS Triton™ X-100 was performed, and finally, cells were stained with FITC Mouse monoclonal Anti-c-Myc (ab223913) and Alexa Fluor® 647 Rabbit monoclonal Anti-PD-L1 (ab215251).

MCF-7 = MCF-7 cell viability in co-culture with Jurkat T cells (flow cytometry count); assay type: cell-based, human; conditions: 24 h; for viability at 100 µM: Homo sapiens, MCF7, MCF-7/Jurkat T co-culture, IFN-γ stimulated, read-out: percentage of living MCF-7 cells relative to non-treated co-cultures; for inhibition rate of MCF-7 cell viability: co-cultured with Jurkat T cells, 100 μM
Method: as §4, §5

PD-L1 = PD-L1 (Homo sapiens, UniProt Q9NZQ7); assay: Total PD-L1 relative quantification by flow cytometry in cancer cell lines; assay type: cell-based; design: Alexa Fluor® 647 Rabbit monoclonal Anti-PD-L1 (ab215251); endogenous in cells; host or cells: HT-29; conditions: 24 h, total PD-L1 relative to negative control (DMSO)
Method: as §6, §7, §8, §9

[1] = A549 co-cultured with Jurkat T cells
[2] = HT29 co-cultured with Jurkat T cells
[3] = MCF7 co-cultured with Jurkat T cells
[4] = A-549, 100 µM, relative to negative control (DMSO)
[5] = HT-29, 100 µM, detected target relative to negative control (DMSO)
[6] = MCF-7, 100 µM, relative to negative control (DMSO)

Chain of PD-L1 (Q9NZQ7 19-290): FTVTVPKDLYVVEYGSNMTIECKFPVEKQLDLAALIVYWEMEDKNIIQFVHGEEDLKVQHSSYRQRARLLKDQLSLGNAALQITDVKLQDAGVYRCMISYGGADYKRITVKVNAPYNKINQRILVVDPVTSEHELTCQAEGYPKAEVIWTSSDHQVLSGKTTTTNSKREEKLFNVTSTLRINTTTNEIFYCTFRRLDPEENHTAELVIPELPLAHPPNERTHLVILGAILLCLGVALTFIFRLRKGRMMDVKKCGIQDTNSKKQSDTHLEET
T1 sequence (Q9NZQ7 19-290): as above

Row | SMILES | %VEGFR2 (membrane) (membrane VEGFR-2; [1]) | %VEGFR2 (membrane) (membrane VEGFR-2; [2]) | %VEGFR2 (membrane) (membrane VEGFR-2; [3]) | viability at 100 µM (Jurkat T cells; A-549/Jurkat T co-culture) | viability at 100 µM (Jurkat T cells; HT-29/Jurkat T co-culture) | viability at 100 µM (Jurkat T cells; MCF-7/Jurkat T co-culture) | viability at 100 µM (A-549) | inhibition rate of A-549 cell viability (A-549) | remaining activity at 100 µM (membrane PD-L1; [1]) | remaining activity at 100 µM (membrane PD-L1; [2]) | remaining activity at 100 µM (membrane PD-L1; [3]) | viability at 100 µM (HT-29) | % c-Myc (c-Myc; [4]) | % c-Myc (c-Myc; [5]) | % c-Myc (c-Myc; [6]) | viability at 100 µM (MCF-7) | remaining activity at 100 µM (PD-L1; A549, A-549, 100 µM) | remaining activity at 100 µM (PD-L1; HT-29, 100 µM) | remaining activity at 100 µM (PD-L1; MCF7, MCF-7, 100 µM) | inhibition rate of MCF-7 cell viability (MCF-7) | also measured
1 | COc1ccc(-c2cn(CCc3ccc(CCO)cc3)nn2)cc1 [Compound 10, 2-(4-(2-(4-(4-methoxyphenyl)-1H-1,2,3-triazol-1-yl)ethyl)phenyl)ethan-1-ol] | 107 ± 1% | 94 ± 6% | 105 ± 3% | 100 ± 4% | 120 ± 23% | 148 ± 20% | 103 ± 4% | no activity | 84 ± 6% | 126 ± 7% | 48 ± 7% | 145 ± 16% | 126 ± 2% | 83 ± 8% | 91 ± 6% | 94 ± 2% | 62 ± 14% | 82 ± 2% | 114 ± 9% | – | –
2 | COc1ccc(C(OCCc2ccc(CCn3cc(-c4cccc(OC)c4)nn3)cc2)(c2ccccc2)c2ccc(OC)cc2)cc1 [Compound 11, 1-(4-(2-(bis(4-methoxyphenyl)(phenyl)methoxy)ethyl)phenethyl)-4-(3-methoxyphenyl)-1H-1,2,3-triazole] | 85 ± 1% | 79 ± 10% | 92 ± 10% | 511 ± 86% | 76 ± 52% | 79 ± 13% | 102 ± 4% | – | 94 ± 1% | 104 ± 14% | 48 ± 7% | 65 ± 6% | 55 ± 4% | 50 ± 3% | 81 ± 2% | 50 ± 1% | 104 ± 1% | 48 ± 4% | 108 ± 7% | half | c-Myc inhibition (c-Myc; HT-29, 100 μM): 50%
3 | COc1cccc(-c2cn(CCc3ccc(CCO)cc3)nn2)c1 [Compound 12, 2-(4-(2-(4-(3-methoxyphenyl)-1H-1,2,3-triazol-1-yl)ethyl)phenyl)ethan-1-ol] | 99 ± 6% | 113 ± 4% | 103 ± 8% | 83 ± 6% | 104 ± 5% | 123 ± 11% | 86 ± 2% | around 30% | 77 ± 3% | 88 ± 5% | 41 ± 2% | 60 ± 3% | 113 ± 9% | 84 ± 2% | 81 ± 4% | 78 ± 4% | 67 ± 8% | 157 ± 6% | 88 ± 1% | – | inhibition rate of HT-29 cell viability (HT-29; co-cultured with Jurkat T cells, 100 μM): around 40%
4 | COc1ccc(C(OCCc2ccc(CCn3cc(-c4ccccc4OC)nn3)cc2)(c2ccccc2)c2ccc(OC)cc2)cc1 [Compound 13, 1-(4-(2-(bis(4-methoxyphenyl)(phenyl)methoxy)ethyl)phenethyl)-4-(2-methoxyphenyl)-1H-1,2,3-triazole] | 80 ± 8% | 89 ± 2% | 120 ± 8% | 90 ± 2% | 110 ± 9% | 79 ± 5% | 103 ± 4% | – | 83 ± 6% | 57 ± 12% | 33 ± 4% | 153 ± 15% | 51 ± 2% | 68 ± 3% | 77 ± 5% | 43 ± 1% | 120 ± 5% | 102 ± 1% | 87 ± 6% | around 60% | inhibition at 100 µM (membrane PD-L1): 40 to 50%; c-Myc inhibition rate (c-Myc; A-549, 100 μM): 50%
5 | COc1ccccc1-c1cn(CCc2ccc(CCO)cc2)nn1 [Compound 14, 2-(4-(2-(4-(2-methoxyphenyl)-1H-1,2,3-triazol-1-yl)ethyl)phenyl)ethan-1-ol] | 106 ± 1% | 97 ± 6% | 91 ± 6% | 109 ± 20% | 106 ± 9% | 127 ± 6% | 78 ± 9% | around 30% | 85 ± 3% | 61 ± 3% | 80 ± 5% | 67 ± 10% | 85 ± 10% | 67 ± 4% | 71 ± 5% | 47 ± 1% | 54 ± 7% | 138 ± 2% | 71% | around 60% | inhibition at 100 µM (membrane PD-L1): 40 to 50%

Reference: paper PMC9917184, “Synthesis and Biological Evaluation of Potential Oncoimmunomodulator Agents” (International Journal of Molecular Sciences, 2023)
